Some targets named below: Histone deacetylase 4 (Homo sapiens, UniProt P56524); Histone deacetylase 9 (Homo sapiens, UniProt Q9UKV0); Histone deacetylase 5 (Homo sapiens, UniProt Q9UQL6); Histone deacetylase 2 (Homo sapiens, UniProt Q92769); Histone deacetylase 1 (Homo sapiens, UniProt Q13547).
The next test relates to A2780. Nature of the test: Antiproliferative activity against human A2780 cells after 96 hrs by celltiter 96 assay. Conditions: A2780, 96 h. The class given is functional, cell-based.
In a further test the target is Cytochrome P450 2C9 (Homo sapiens, UniProt P11712). Nature of the test: Inhibition of CYP2C9 in human liver microsomes by fluorescence assay. The class given is ADME, Microsome.
Test [1] has as its target T1, Cytochrome P450 2D6 (Homo sapiens, UniProt P10635). Nature of the test: Inhibition of recombinant CYP2D6 after 30 mins by fluorescence assay. Type of test: ADME.
A further test has as its target T2, Histone deacetylase 11 (Homo sapiens, UniProt Q96DB2).
T2 sequence (Q96DB2 whole entry): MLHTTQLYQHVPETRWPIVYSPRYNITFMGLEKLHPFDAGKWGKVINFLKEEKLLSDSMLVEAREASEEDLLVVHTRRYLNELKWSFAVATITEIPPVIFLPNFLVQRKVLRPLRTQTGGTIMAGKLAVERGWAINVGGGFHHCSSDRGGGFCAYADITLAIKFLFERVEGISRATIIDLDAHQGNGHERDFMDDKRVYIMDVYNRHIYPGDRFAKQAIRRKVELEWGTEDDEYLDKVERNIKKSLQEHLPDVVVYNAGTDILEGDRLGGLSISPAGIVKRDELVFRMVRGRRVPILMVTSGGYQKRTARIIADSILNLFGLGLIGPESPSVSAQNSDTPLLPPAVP

The target in test [2] is T1, Cytochrome P450 2D6. Nature of the test: Inhibition of CYP2D6 in human liver microsomes by fluorescence assay. The class given is ADME, Microsome. On the technique in general: Liver microsomes are vesicles of endoplasmic reticulum, rich in cytochrome P450 enzymes.
For another test, the system named is PC-3. Put plainly: Antiproliferative activity against human PC3 cells after 96 hrs by celltiter 96 assay. Type of test: functional, cell-based. Conditions: PC-3, 96 h.
The target of a further test is Cytochrome P450 2C19 (Homo sapiens, UniProt P33261). Nature of the test: Inhibition of CYP2C19 in human liver microsomes by fluorescence assay. Type of test: ADME, Microsome.
Test [3] addresses T3, Polyamine deacetylase HDAC10 (Homo sapiens, UniProt Q969S8).
T3 sequence (Q969S8 whole entry): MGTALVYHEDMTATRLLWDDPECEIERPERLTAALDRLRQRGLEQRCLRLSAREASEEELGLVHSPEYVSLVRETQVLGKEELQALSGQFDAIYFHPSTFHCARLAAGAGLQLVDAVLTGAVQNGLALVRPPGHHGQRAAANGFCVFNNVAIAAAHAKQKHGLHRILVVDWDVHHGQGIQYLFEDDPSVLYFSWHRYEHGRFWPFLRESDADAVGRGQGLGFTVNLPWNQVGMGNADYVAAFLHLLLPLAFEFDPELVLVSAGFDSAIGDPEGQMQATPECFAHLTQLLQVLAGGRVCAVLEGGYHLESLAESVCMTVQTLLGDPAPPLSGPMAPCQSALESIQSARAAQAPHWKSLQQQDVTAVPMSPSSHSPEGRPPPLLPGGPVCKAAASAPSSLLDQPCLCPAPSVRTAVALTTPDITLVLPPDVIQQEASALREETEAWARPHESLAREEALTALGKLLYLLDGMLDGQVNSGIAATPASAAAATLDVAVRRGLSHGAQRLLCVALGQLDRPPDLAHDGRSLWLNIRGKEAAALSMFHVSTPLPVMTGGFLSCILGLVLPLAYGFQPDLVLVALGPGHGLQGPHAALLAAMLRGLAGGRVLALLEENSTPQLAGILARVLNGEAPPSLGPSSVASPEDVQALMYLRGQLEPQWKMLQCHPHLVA
Description: Competitive inhibition of HDAC10 using KI-104 as substrate by fluorescence assay

Test [4] addresses T4, Protein deacetylase HDAC6 (Homo sapiens, UniProt Q9UBN7).
T4 sequence (Q9UBN7 whole entry): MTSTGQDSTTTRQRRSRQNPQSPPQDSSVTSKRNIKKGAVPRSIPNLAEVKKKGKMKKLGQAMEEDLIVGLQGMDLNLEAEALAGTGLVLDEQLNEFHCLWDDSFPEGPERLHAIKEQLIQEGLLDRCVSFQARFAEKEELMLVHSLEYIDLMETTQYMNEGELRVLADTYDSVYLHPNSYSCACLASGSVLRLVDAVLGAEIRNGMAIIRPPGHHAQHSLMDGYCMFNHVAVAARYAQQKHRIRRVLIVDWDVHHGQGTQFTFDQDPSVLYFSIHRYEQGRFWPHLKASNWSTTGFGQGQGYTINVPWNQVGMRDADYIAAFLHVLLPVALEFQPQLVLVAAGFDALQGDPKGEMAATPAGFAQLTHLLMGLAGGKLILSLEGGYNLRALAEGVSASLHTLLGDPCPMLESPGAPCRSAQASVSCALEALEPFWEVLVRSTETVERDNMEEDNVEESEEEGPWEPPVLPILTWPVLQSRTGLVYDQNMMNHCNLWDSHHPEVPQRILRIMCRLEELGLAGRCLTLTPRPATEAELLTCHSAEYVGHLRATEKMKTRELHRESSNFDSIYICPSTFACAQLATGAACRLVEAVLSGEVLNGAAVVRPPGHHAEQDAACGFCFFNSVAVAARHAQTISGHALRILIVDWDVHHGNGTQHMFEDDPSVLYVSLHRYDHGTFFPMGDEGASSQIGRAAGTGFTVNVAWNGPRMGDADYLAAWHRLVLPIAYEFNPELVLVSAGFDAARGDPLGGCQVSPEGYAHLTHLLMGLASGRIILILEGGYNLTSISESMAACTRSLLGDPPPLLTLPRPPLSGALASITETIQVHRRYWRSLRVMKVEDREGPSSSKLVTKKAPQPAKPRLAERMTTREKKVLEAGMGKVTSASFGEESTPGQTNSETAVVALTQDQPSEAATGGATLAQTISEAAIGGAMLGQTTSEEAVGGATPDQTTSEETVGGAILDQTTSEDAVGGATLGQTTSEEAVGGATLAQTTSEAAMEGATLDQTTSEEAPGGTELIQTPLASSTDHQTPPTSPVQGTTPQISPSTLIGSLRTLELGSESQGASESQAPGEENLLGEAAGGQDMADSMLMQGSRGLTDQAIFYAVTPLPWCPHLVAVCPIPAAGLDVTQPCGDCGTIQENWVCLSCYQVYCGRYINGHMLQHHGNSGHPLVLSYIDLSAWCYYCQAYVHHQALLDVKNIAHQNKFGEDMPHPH
Description: Competitive inhibition of HDAC6 using KI-104 as substrate by fluorescence assay

The next test deals with HCT-116. Nature of the test: Antiproliferative activity against human HCT116 cells after 96 hrs by celltiter 96 assay. Type of test: functional, cell-based. The conditions noted are these: HCT-116, 96 h.
In a further test the test system is COLO 205. Put plainly: Antiproliferative activity against human COLO205 cells after 96 hrs by celltiter 96 assay. The class given is functional, cell-based. Conditions: COLO 205, 96 h.

Where only a bound is given, the exact number is not on record here.

T1 sequence (P10635 whole entry): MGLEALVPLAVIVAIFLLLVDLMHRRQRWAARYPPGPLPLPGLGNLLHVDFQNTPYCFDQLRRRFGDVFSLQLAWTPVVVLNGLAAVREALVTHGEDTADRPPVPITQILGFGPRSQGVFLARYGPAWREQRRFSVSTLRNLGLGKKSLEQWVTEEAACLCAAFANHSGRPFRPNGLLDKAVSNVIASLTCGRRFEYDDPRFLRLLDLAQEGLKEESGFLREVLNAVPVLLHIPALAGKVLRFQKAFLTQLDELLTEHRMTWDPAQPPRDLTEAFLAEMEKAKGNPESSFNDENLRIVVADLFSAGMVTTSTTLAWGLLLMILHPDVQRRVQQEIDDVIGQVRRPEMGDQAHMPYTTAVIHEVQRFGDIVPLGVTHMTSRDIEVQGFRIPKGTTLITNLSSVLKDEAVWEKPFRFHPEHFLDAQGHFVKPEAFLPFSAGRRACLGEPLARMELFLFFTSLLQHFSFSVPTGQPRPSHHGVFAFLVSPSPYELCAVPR
Chain of Histone deacetylase 2 (Q92769 whole entry): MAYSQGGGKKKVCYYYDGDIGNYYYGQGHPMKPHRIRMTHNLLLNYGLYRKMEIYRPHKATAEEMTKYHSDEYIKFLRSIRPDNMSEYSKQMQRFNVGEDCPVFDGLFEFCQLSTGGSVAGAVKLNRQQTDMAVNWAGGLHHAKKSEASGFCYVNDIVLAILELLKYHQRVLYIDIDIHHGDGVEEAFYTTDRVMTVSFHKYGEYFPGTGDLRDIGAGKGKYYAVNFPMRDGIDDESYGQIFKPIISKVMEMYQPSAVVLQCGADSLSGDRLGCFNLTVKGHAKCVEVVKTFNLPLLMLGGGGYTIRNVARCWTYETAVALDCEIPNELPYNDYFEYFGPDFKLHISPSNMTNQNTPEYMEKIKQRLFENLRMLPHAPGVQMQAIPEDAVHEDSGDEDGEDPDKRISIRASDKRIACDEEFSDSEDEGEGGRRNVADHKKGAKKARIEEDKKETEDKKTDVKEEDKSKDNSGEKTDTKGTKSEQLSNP
Chain of Histone deacetylase 5 (Q9UQL6 whole entry): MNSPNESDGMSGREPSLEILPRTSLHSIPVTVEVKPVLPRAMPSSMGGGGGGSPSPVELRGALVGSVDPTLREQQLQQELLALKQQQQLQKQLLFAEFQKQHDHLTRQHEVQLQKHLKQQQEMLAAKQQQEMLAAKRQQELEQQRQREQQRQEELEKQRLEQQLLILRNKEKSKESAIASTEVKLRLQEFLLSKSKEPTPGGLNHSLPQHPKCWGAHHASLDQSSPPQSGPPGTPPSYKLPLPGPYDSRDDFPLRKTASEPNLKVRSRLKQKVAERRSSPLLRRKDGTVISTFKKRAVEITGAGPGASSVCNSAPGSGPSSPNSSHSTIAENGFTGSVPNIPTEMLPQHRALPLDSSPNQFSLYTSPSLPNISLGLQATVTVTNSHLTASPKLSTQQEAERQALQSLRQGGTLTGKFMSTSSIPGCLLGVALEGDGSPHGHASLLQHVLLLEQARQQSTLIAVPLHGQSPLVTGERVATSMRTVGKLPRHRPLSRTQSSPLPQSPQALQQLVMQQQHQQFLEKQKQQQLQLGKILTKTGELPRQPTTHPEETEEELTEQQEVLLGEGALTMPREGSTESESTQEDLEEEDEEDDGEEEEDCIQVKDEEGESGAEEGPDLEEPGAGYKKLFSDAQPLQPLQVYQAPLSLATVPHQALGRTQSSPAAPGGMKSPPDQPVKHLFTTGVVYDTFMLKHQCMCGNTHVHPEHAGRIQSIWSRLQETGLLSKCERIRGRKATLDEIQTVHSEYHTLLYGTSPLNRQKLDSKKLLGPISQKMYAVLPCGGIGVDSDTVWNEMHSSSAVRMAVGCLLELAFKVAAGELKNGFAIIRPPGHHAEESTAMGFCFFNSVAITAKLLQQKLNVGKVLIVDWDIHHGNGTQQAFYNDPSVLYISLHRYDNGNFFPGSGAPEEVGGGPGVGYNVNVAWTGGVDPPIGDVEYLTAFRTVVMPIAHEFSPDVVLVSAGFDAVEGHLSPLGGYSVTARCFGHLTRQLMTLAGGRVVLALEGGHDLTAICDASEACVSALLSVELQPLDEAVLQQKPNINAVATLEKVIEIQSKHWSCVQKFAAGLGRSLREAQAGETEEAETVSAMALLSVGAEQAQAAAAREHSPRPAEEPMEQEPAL
Chain of Cytochrome P450 2C19 (P33261 whole entry): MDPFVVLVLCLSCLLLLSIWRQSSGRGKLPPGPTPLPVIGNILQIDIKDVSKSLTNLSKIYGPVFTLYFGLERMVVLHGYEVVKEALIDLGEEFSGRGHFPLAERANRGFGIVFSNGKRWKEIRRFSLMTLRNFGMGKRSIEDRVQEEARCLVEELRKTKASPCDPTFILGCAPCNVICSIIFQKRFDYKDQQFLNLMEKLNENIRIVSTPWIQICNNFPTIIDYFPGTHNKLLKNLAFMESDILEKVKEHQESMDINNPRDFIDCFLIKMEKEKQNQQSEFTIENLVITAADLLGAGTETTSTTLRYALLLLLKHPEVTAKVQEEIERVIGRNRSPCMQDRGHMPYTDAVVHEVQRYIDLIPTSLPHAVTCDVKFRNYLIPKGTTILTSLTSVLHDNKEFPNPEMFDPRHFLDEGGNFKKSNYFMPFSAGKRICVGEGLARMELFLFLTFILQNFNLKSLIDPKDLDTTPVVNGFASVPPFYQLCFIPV
Chain of Histone deacetylase 4 (P56524 whole entry): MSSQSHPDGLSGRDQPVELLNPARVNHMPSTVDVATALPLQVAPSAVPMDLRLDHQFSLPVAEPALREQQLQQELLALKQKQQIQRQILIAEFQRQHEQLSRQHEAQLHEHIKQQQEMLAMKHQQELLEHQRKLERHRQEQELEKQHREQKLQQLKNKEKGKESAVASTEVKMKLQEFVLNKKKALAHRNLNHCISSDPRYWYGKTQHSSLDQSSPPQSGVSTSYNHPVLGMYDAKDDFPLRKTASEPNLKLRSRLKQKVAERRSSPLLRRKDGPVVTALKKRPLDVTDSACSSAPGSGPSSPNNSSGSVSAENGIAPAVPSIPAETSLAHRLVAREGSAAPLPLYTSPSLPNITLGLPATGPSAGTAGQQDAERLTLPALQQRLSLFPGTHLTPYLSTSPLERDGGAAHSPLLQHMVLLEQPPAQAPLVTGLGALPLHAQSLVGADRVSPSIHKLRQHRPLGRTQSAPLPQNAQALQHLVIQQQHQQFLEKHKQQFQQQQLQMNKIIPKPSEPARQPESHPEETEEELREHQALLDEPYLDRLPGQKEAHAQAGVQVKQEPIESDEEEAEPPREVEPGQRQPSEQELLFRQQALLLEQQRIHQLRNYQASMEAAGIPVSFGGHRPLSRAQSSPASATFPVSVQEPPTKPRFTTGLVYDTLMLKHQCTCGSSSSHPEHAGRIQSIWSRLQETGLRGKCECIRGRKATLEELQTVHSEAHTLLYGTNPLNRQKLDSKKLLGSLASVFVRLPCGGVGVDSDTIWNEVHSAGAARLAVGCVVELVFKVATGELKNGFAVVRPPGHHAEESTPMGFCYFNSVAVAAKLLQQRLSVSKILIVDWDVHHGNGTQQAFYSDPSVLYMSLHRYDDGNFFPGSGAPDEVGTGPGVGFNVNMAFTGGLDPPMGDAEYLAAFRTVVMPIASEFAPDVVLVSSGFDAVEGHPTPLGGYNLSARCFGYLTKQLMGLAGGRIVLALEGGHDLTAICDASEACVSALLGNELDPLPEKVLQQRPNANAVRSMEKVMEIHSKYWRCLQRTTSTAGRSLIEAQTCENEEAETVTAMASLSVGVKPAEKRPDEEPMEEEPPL
Chain of Histone deacetylase 9 (Q9UKV0 whole entry): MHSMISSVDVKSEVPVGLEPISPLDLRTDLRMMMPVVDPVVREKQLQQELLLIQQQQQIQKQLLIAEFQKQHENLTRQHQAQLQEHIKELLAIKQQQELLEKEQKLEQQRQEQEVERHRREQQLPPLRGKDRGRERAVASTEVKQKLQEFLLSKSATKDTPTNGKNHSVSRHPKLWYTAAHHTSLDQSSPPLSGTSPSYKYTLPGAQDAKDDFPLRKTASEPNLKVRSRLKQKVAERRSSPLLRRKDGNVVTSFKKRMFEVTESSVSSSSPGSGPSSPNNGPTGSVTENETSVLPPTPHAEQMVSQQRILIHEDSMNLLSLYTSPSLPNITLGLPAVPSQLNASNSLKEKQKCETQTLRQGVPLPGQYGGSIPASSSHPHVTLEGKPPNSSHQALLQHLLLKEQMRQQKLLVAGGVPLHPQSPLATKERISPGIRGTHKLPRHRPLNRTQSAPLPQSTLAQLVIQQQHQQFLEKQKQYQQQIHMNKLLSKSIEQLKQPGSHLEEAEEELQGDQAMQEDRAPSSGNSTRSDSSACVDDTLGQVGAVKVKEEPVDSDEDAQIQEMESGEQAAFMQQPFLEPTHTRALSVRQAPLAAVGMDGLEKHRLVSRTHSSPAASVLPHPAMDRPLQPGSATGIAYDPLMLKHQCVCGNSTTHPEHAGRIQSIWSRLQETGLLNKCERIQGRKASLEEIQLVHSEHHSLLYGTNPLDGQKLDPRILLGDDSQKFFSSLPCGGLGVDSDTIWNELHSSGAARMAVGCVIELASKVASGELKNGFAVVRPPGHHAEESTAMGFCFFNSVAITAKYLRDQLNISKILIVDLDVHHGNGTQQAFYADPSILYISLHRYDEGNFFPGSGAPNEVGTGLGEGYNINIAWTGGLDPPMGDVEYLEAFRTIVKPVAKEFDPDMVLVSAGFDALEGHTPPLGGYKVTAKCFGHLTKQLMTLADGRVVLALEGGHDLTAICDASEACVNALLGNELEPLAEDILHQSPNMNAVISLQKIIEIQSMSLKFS
Description for Histone deacetylase 11: Competitive inhibition of HDAC11 using KI-104 as substrate by fluorescence assay
Description for Histone deacetylase 2: Competitive inhibition of HDAC2 using KI-104 as substrate by fluorescence assay
Description for Histone deacetylase 4: Competitive inhibition of HDAC4 using KI-104 as substrate by fluorescence assay
Description for Histone deacetylase 5: Competitive inhibition of HDAC5 using KI-104 as substrate by fluorescence assay
Description for Histone deacetylase 9: Competitive inhibition of HDAC9 using KI-104 as substrate by fluorescence assay

The term Ki denotes the equilibrium dissociation constant of an inhibitor or competing ligand from its target. Usually IC50 stands for the concentration at which inhibition is half-maximal. Turning to `CCCCc1nc2cc(/C=C/C(=O)NO)ccc2n1CCN(CC)CC.Cl.Cl`, the inhibition constant (Ki) on Histone deacetylase 4 was found to be 16 nM; at Histone deacetylase 9, 24 nM; at Histone deacetylase 11, 24 nM; at Histone deacetylase 5, 21 nM; at Histone deacetylase 2 it was 27 nM; in test [3], 23 nM. Moreover, the Ki was found to be 247 nM in test [4] and […] at Histone deacetylase 1. Also, the IC50 in the test with A2780 was 480 nM; at Cytochrome P450 2C9, > 25000 nM; at Cytochrome P450 2D6 [1] it was > 10000 nM; against Cytochrome P450 2D6 [2], > 25000 nM; with PC-3, 340 nM; against Cytochrome P450 2C19 it was 5780 nM. For the same compound, the IC50 in the test with HCT-116 came to 480 nM; in the test on COLO 205 it was 560 nM.

Turning to `CCCCCCc1nc2cc(/C=C/C(=O)NO)ccc2n1CCN(C)C`, the Ki on Histone deacetylase 4 stood at 5.3 nM; on Histone deacetylase 9 it was 11 nM; at Histone deacetylase 11, 11 nM; on Histone deacetylase 5 it was 9.2 nM; on Histone deacetylase 2, 21 nM; in test [3], 13 nM. The figures for the Ki (in [4]; at Histone deacetylase 1) were 300 nM and 19 nM, respectively. Moreover, the IC50 in the test on A2780 is 230 nM; at Cytochrome P450 2C9, 10400 nM; at Cytochrome P450 2D6 [1], 3170 nM; against Cytochrome P450 2D6 [2], > 25000 nM; with PC-3, 250 nM; on Cytochrome P450 2C19, 10300 nM. The IC50 in the test on HCT-116 and in the test with COLO 205 was 330 nM each time.

In the case of `CN(C)CC(C)(C)Cn1c(CC(C)(C)C)nc2cc(/C=C/C(=O)NO)ccc21`, the Ki is 7.9 nM at Histone deacetylase 4; 11 nM at Histone deacetylase 9; 14 nM on Histone deacetylase 11; 11 nM at Histone deacetylase 5; 26 nM at Histone deacetylase 2; 34 nM in [3]. Also, the inhibition constant Ki in test [4] is 94 nM; on Histone deacetylase 1 it was 24 nM. For the same compound, the IC50 in the test on A2780 is 440 nM; against Cytochrome P450 2C9 it was > 25000 nM; at Cytochrome P450 2D6 [1], > 10000 nM; against Cytochrome P450 2D6 [2], 13900 nM; with PC-3 it was 500 nM; at Cytochrome P450 2C19 it was 8100 nM. Also, the half-maximal inhibitory concentration (IC50) worked out at 800 nM in the test with HCT-116 and 570 nM in the test with COLO 205.

The values are drawn from ChEMBL document CHEMBL1828590 (J Med Chem, 2011).
